Reference: US8822440B2, “Inhibiting cyclin D polypeptides” (Mayo Foundation for Medical Education and Research, priority 2006, dated 2014)
Entries after “also recorded” stand apart in the source; their conditions may differ.

Assays:
NIH3T3 cells = format: cell-based, mouse; conditions: MTS
Experimental: (§1) NIH3T3 cells stably expressing c-maf and the CCND2 promoter driving luciferase (13,000 cells per well) were plated in 96-well plates by a Biomek FX liquid handler (Beckman, Fullerton, Calif.). After the cells had adhered, they were treated with aliquots of molecules from LOPAC (Sigma, St. Louis, Mo.), Prestwick (Prestwick Chemical Inc, Illkirch, France) or Spectrum (Microsource Discovery Systems, Gaylordsville, Conn.) libraries of off-patent drugs and chemicals at a final concentration of ˜5 μM and <0.1% DMSO. Cells were incubated with compounds at 37° C. for 16 hours.
(§2) Viability assay. The effects of screened compounds on cell viability was assessed by 3-(4,5-dimethyl[…])-5-(3-carboxymethoxyphenyl)-2-(4-sulfophenyl)-2-H-tetrazolium (MTS) assay according to the manufacture's instructions (Progmega, Madison, Wis.). MTS reagent (20 μL/well in 96 well plates) was added to cells, and these were then incubated at 37° C. for 4 hours. Absorbance at 490 nm was determined using a 96-well plate reader.
(§3) In an optimized automated assay, NIH3T3 cells over-expressing c-maf and the human cyclin D2 promoter driving luc were plated in 96-well plates by robot and following adhesion were treated for 16 hours with compounds at a final concentration of ˜5 μM and <0.1% DMSO. As a control, cells were treated with buffer alone. […] Thus, each compound from the library was tested in at least two assays—luciferase for CCND2 activity and MTS for viability. The coefficient of variance (CV) of the assay was <10%.

[1] = system: cyclin D1, cyclin D2, cyclin D3; assay: Immunoblot of cyclin D proteins in HMCL; format: cell-based, human; conditions: A-134974 2 μM, kinetin riboside 10 μM
Experimental: (§4) Immunoblotting. Cytosolic extracts were prepared from HMCL or purified patient CD138^+ myeloma cells following exposure to kinetin riboside. Cells were washed with cold PBS, resuspended in cold RIPA buffer (5×10^6 cells/100 μL) containing fresh protease and phosphatase inhibitors (Santa Cruz Biotechnology, Santa Cruz, Calif.) and incubated on ice for 30 minutes with gentle mixing. The supernatant was repossessed following high speed centrifugation, and protein concentrations were determined by the Bradford assay. Immunoblot assays were performed as described elsewhere (Krajewski et al., Anal. Biochem., 236:221-228 (1996)). Briefly, equal amounts of protein were separated by SDS-PAGE and transferred to a PVDF nitrocellulose membrane using a semi-dry apparatus. Membranes were blocked using 5% skim milk in Tris buffered saline and probed with monoclonal mouse anti-cyclin D1 (DCS-6, Biosource, Camarillo, Calif.), polyclonal rabbit anti-cyclin D2 (#2924, Cell Signalling Technology), monoclonal mouse anti-cyclin D3 (DCS-22, BioSource), polyclonal rabbit anti-c-Maf (M-153, Santa Cruz), polyclonal rabbit anti-Cleaved Caspase 9 (Asp315) (Cell Signaling Technology), monoclonal mouse anti-β-actin (Cell Signaling Technology) and/or monoclonal anti-a-tubulin (B-7)(Santa Cruz Biotechnology, Santa Cruz, Calif.). Membrane proteins were visualized using HRP-conjugated species-specific secondary antibodies (Cell Signaling Technology) and enhanced chemiluminescence (Pierce, Rockford, Ill.).

CCND2 promoter = assay: CCND2 promoter-luciferase transactivation assay in NIH3T3 cells with or without c-maf; format: cell-based, mouse
Experimental: Using this assay, Lopac (n=1280), Prestwick (n=1120), and Spectrum (n=2000) libraries of drugs and natural compounds were screened. In a parallel MTS assay, the effect of each compound on 3T3 viability was determined, allowing exclusion of compounds that caused secondary suppression of CCND2 due to non-specific cytotoxicity. […] These included monensin, patulin, β-lapachone, camptothecin, dihydrogambogic acid, gentian violet, thapsigargin, brefeldin A, pristimerin, and kinetin riboside.
Full-length c-maf cDNA was subcloned into an IRES-GFP MIEV retroviral vector and introduced into NIH3T3 cells by infection. Stable clones expressing GFP and c-maf were selected by flow cytometry and immunoblotting, respectively. The promoter of human cyclin D2 (−894 to −4; Brooks et al., J. Biol. Chem., 271, 9090-9 (1996)), containing c-maf responsive element sequence (MARE), was cloned from DNA from HeLa cells and inserted into the pGLbasic firefly luciferase vector (Promega, Madison, Wis.) immediately upstream of the luciferase gene. This construct was co-transfected with pcDNA3 (containing a neomycin resistance gene) into both NIH3T3 wild type cells and NIH3T3 cells stably over-expressing c-maf-IRES-GFP. Cells stably expressing c-maf, GFP, and luciferase were selected.
as §1
Luciferase assay. Luciferase activity was assessed according to the manufacturer's instructions (Promega, Madison, Wis.). Briefly, the cell culture medium was removed using an EMBLA plate washer (Molecular Devices, X) and Glo Lysis buffer (Promega) was added by robot. After a 10-minute incubation, an equal volume of Bright-Glo Luciferase substrate (Promega) was added, and luminescence signal was detected with a 96-well Luminoskan luminescence plate reader (Thermo Labsystem, Waltham, Mass.) using a 5 second integration.
Studies of kinetin riboside using 3T3-D2-luc cells. To examine CCND2 suppression induced by kinetin riboside, the reporter cells were exposed to kinetin riboside in combination with other drugs (all purchased from Sigma, St. Loius, Mo.) that influence CCND2 transcription or inhibit nucleoside transport or phosphorylation. NIH3T3 cells expressing the CCND2 promoter driving luciferase were incubated with kinetin riboside or vehicle control +/− forskolin, 4-(3-butoxy-4-methoxybenzyl)imidazolidin-2-one (BMBI), cantharadin, S-(4-Nitrobenzyl)-6-thioinosine (NBTI), or A-134974, as specified at 5 μM concentration for 16 hours at 37° C. […] Forskolin is a cell-permeable diterpenoid that activates adenylate cyclase resulting in increased cAMP concentration. BMBI (Sigma B8279) is an inhibitor of cAMP phosphodiesterase that also causes accumulation of cAMP. Cantharadin (C7632) is an inhibitor of protein phosphatase 2A and, from the library screen, mediates induction of CCND2. NBTI (Sigma N2255) is a potent adenosine uptake inhibitor, and A-134974 (Sigma A2846) is a selective inhibitor of adenosine kinase.
as §3

caspase 9 = assay: Immunoblot of caspase 9 cleavage in HMCL; format: cell-based, human; conditions: A-134974 2 μM, kinetin riboside 10 μM
Experimental: as §4, with “Membrane proteins were visualized using HRP-conjugated species-specific secondary antibodies (Cell Signaling Technology) and enhanced chemiluminescence (Pierce, Rockford, Ill.).” left out

[2] = system: human myeloma cell lines (HMCL); assay: HMCL viability / cytotoxicity (MTT, MTS); format: cell-based
Experimental: Subsequent validation studies using selected compounds in human myeloma cell lines (HMCL) confirmed successful suppression of both cyclin D2 and D1 polypeptides. Each of these compounds was then shown to be cytotoxic to a genetically diverse and standardized panel of 14 HMCL in MTT assays: monensin (10-760 nM), camptothecin (5-700 nM), dihydrogambogic acid (250-800 nM), pristimerin (150-500 nM), and kinetin riboside (2.5-20 μM). Cell cycle analysis confirmed induction of G0/G1 phase arrest for most compounds, consistent with cyclin D inhibition.
as §2

[3] = Pristimerin toxicity studies in mice; format: in vivo; conditions: i.p. daily
Experimental: While pristimerin is cytotoxic to HMCL and patient myeloma cells at 0.1-0.15 mg/L, toxicity studies in vivo indicate that the drug is tolerated in mice at 2.5 mg/kg i.p. daily.

[4] = system: CD138− hematopoietic cells; assay: Unsorted myeloma patient bone marrow, flow cytometry: CD138- non-malignant cells; format: cell-based; conditions: patient bone marrow, 48 hours
Experimental: Flow cytometry. HMCL were treated as indicated and then washed in cold phosphate-buffered saline (PBS) and resuspended in buffer containing AnnexinV-FITC and propidium iodide (BD Biosciences, San Jose, Calif.) for 15 minutes at room temperature. Cells (10^5) were subsequently diluted and analyzed immediately by flow cytometry (FACScan, BD Biosciences, San Jose, Calif.) using CellQuest software. Patient bone marrow specimens were prepared and analyzed in a similar fashion using AnnexinV-FITC and anti-CD138-PE (BD Biosciences, San Jose, Calif.).
As mouse embryos that lack any D-cyclins eventually die from hematopoietic failure (Kozar et al., Cell, 118, 477-91 (2004)), the bone marrow might be predicted to be one of the most sensitive non-malignant tissue to be affected by drugs targeting cyclin D expression. Unsorted bone marrow samples from myeloma patients were treated with kinetin riboside to assess the relative cytotoxicity of this drug on malignant versus non-malignant marrow cells. Bone marrow samples were first processed to remove non-nucleated red cells and were then treated for 48 hours with kinetin riboside (5 μM).

RSV promoter = assay: Luciferase driven by RSV promoter in NIH3T3 cells (specificity control); format: cell-based
Text: Exclusion of non-specific or toxic assay ‘hits.’ Drugs that decreased luciferase activity without affecting viability may cause reduced transactivation of the cyclin D2 promoter, or may act non-specifically on the activity of the luciferase enzyme. To distinguish between these two possibilities, hits were re-tested against NIH3T3 cells that over-expressed luciferase driven by an RSV promoter. […] Therefore, these drugs were excluded from further analysis.

Row | SMILES | effect on NIH3T3 viability (NIH3T3 cells) | effect on cyclin D1 and D2 levels in kinetin riboside-treated HMCL [1] | effect on CCND2-luc expression, agent alone (CCND2 promoter; NIH3T3 reporter cells, 5 μM, 16 hours) | effect on kinetin riboside-induced suppression of CCND2 (CCND2 promoter; NIH3T3 reporter cells, with kinetin riboside) | effect on kinetin riboside-induced caspase 9 cleavage in HMCL (caspase 9) | cytotoxic concentration ([2]; HMCL and patient myeloma cells) [mg/L] | cytotoxic concentration across panel of 14 HMCL ([2]; MTT assays, 14 HMCL) [nM] | dose tolerated in mice [3] [mg/kg] | toxicity in CD138− bone marrow progenitor compartment [4] | identified as putative inhibitor of CCND2 transactivation (screen hit) (CCND2 promoter; ~5 μM, 16 hours, hit = 50% or more reduction in luciferase relative to cell viability) | effect on luciferase driven by RSV promoter (RSV promoter)
1 | Nc1ncnc2c1c(I)cn2[C@@H]1C[C@H](N)[C@@H](O)[C@H]1O [A-134974] | no effect on 3T3 cell viability | partially rescues | minimal enhancement | completely inhibits | prevents | – | – | – | – | – | –
2 | COC(=O)[C@]1(C)CC[C@]2(C)CC[C@]3(C)C4=CC=C5C(=CC(=O)C(O)=C5C)[C@]4(C)CC[C@@]3(C)[C@@H]2C1 [pristimerin] | relatively minor effects | – | – | – | – | 0.1 to 0.15 | 150 to 500 | 2.5 | only modest toxicity | – | –
3 | O=C1C=C2C(=CCOC2O)O1 (stereo not shown) [patulin] | excess NIH3T3 cytoxicity | – | – | – | – | – | – | – | – | putative CCND2 inhibitors; also recorded: putative suppressors of CCND2 | non-specifically reduce luciferase activity
